Common to all, as to format: cell-based
Test [1] deals with SDF-1 induced Ca flux in SUP-T1 cells. Put plainly: Inhibition of chemokine (SDF-1) induced Ca flux measured on a FLIPR. Particulars: Homo sapiens. The method, then: Inhibition of Chemokine Induced Ca Flux Measured on a FLIPR (Molecular Devices) Loading dye: Fluo-3, AM (Molecular Probes F-1241) is dissolved in anhydrous DMSO and stored frozen in aliquots. To increase the solubility of the dye in the loading medium, 10% (w/v) pluronic acid (Molecular Probes F-127) is added to the Fluo-3 stock solution immediately before use. HBSS+20 mM Hepes buffer+0.2% BSA, pH 7.4. HBSS 10× [(w/o phenol red and sodium bicarbonate (Gibco 14 065–049)]; Hepes buffer 1M (Gibco 15 630–056), BSA (Sigma A3675). The flux buffer is vacuum-filtered and stored refrigerated for a maximum of 5 days. Before use in the experiment, the buffer is warmed at 37° C. in a waterbath. The test compounds were diluted in flux buffer to the desired concentration and added to 4 wells of a black microplate (4 parallel measurements per compound). The following control wells were used: 100% response control (no inhibition), flux buffer was added; 100% inhibition control: chemokine was added at 5-times the concentration required to induce a Ca flux. The chemokines are diluted in flux buffer to concentrations that are 4-fold higher than the desired concentrations required for stimulation of the cells (i.e. 2.5 nM for SDF-1[…] and 0.6 nM for RANTES). The chemokines were added to untreated 96-well Sero well compound plates (International Medical, Sterilin code 611F96). In the negative control well's (baseline monitoring), flux buffer is added instead of chemokine. As a positive control to check for dye loading efficiency, 20 μM digitonin (final concentration) was also included. The agonist plate was incubated in the FLIPR (37° C.) for 15–30 min. Cell Loading Protocol for Measuring Inhibition of SDF-1[…] Induced Ca Flux in SUP-T1 Cells. SUP-T1 cells were centrifuged at room temperature (RT) and re-suspended in loading medium (RPMI-1640 containing 2% FBS and 4 μM Fluo-3, AM). The cells were incubate at room temperature for 45 min. then washed twice in flux buffer then incubated in flux buffer at room temperature for 10 min. The cells were centrifuged and re-suspended in flux buffer at a density of 3×10^6 cells per mL. A 100 uL aliquot of the cell suspension (3×10^5 cells) was added to each well of a black microplate (Costar 3603), which already contains 50 uL of a solution of the test compound (at concentrations that are 3-fold higher than the desired final compound concentrations). The microplate is then gently centrifuged at room temperature. Homogeneous spreading of the cells on the bottom of the microplate wells was then confirmed with a microscope and the microplate was incubated in the FLIPR (37° C.) for 10 min. prior to testing. Fluorescence Measurements as a Function of Time on the FLIPR The FLIPR settings (camera exposure time and laser power) are adjusted to obtain initial fluorescence values between 8,000 and 10,000 units. After monitoring a 20 second-baseline, the agonist (chemokine) (50 uL) is added by automatic pipettor with black pipette tips. Fluorescence is measured simultaneously in all wells of the microplate every 2 seconds (first 2 min) and thereafter every 6 seconds (additional 2 min). The average ca-flux measured in each set of 4 identical wells (one test compound) was calculated by the FLIPR software.

Test [2] relates to HIV-1 BaL. Put plainly: Inhibition of HIV-1 BaL (CCR5 using) replication in PHA-stimulated PBMC's, viral p24 antigen expression. To be noted: Human immunodeficiency virus 1, BAL.
In test [3] the test system is HIV-1 NL4.3 or IIIB. Put plainly: Inhibition of HIV-1 (NL4.3 or IIIB, CXCR4 using) replication in MT-4 cells, MTT viability. To be noted: Human immunodeficiency virus 1, IIIB, MT4, concentration protecting 50% of virus-infected cells against viral cytopathicity. The protocol:
Assay for Inhibition of HIV-1 (NL4.3) Replication in MT-4 Cells Inhibition of HIV-1 NL4.3 (or IIIB, CXCR4 using) replication assays were performed as previously described (Bridger et al. J. Med. Chem. 1999, 42, 3971-3981; De […] et al. Proc. Natl. Acad. Sci, 1992, 89, 5286-5290; De […] et al. Antimicrob. Agents Chemother. 1994, 38, 668-674; Bridger et al. J. Med. Chem. 1995, 38, 366-378; Schols et al. J. Exp. Med., 1997, 186, 1383-1388). Anti-HIV activity and cytotoxicity measurements were carried out in parallel. They were based on the viability of MT-4 cells that had been infected with HIV in the presence of various concentrations of the test compounds. After the MT-4 cells were allowed to proliferate for 5 days, the number of viable cells was quantified by a tetrazolium-based colorimetric 3-(4,5-dimethylthiazol-2-yl)-2,5-diphenyltetrazolium bromide (MTT) procedure in 96-well microtrays. In all of these assays, viral input (viral multiplicity of infection, MOI) was 0.01, or 100 times the 50% cell culture infective dose (CCID50). The EC50 was defined as the concentration required to protect 50% of the virus-infected cells against viral cytopathicity.
(In general: Cytopathic effects are the visible damage that an infection or toxin causes in cultured cells.)

Among the data in patent publication US7084155B2, “Chemokine receptor binding heterocyclic compounds” (AnorMED, priority 2000, dated 2006) are inhibition and EC50 values, retold here.

As usually defined, the inhibition is the share of the control response that was lost under treatment. One may read the EC50 as the concentration that produces a half-maximal response. High values mean weaker potency, low ones greater potency.

Turning to `c1ccc(CNCc2ccc(CN[C@H]3CCCC[C@H]3NCc3ccccn3)cc2)nc1` [Example 134, N-(2-pyridinylmethyl)-N′-[cis-2-[(N-pyridin-2-ylmethyl)amino]cyclohexyl]-1,4-benzenedimethanamine], the inhibition at 20 µg/mL in test [1] was greater than 20%. The EC50 in test [2] and in test [3] was less than 20 µg/mL in each case.
As for `FC(F)(F)c1ccc2nc(CN(Cc3ccc(CNCc4ccccn4)cc3)C3CCCc4cccnc43)[nH]c2c1` (stereo not drawn) [Example 1, N-(2-pyridinylmethyl)-N′-(5-trifluoromethyl-1-H-benzimidazol-2-ylmethyl)-N′-(5,6,7,8-tetrahydro-8-quinolinyl)-1,4-benzenedimethanamine], the inhibition at 20 µg/mL in test [1] is greater than 20%. In addition, the EC50 in test [2] and in test [3] was less than 20 µg/mL throughout.
In test [1], `Cc1cc(C)nc(CNCc2ccc(CN(Cc3nc4ccccc4[nH]3)C3CCCc4cccnc43)cc2)c1` (stereo not drawn) [Example 61, N-(4,6-dimethyl-2-pyridinylmethyl)-N′-(1H-benzimidazol-2-ylmethyl)-N′-(5,6,7,8-tetrahydro-8-quinolinyl)-1,4-benzenedimethanamine] yielded an inhibition at 20 µg/mL greater than 20%. Besides, the EC50 in test [2] and in test [3] was less than 20 µg/mL in each case.
Compound `Cc1cc2nc(CN(Cc3ccc(CNCc4ccccn4)cc3)C3CCCc4cccnc43)[nH]c2cc1C` (stereo not drawn) [Example 2, N-(2-pyridinylmethyl)-N′-(5,6-dimethyl-1-H-benzimidazol-2-ylmethyl)-N′-(5,6,7,8-tetrahydro-8-quinolinyl)-1,4-benzenedimethanamine] came in with an inhibition at 20 µg/mL in test [1] greater than 20%. In addition, the EC50 in test [2] and in test [3] was less than 20 µg/mL each time.
`c1cnc2c(c1)CCCC2N(Cc1ccc(CNCc2cc3ccccc3cn2)cc1)Cc1nc2ccccc2[nH]1` (stereo not drawn) [Example 63, N-(3-isoquinolinylmethyl)-N′-(1H-benzimidazol-2-ylmethyl)-N′-(5,6,7,8-tetrahydro-8-quinolinyl)-1,4-benzenedimethanamine] had an inhibition at 20 µg/mL in test [1] greater than 20%. For the same compound, the EC50 in test [2] and in test [3] was less than 20 µg/mL in each case.
In turn, `O=[N+]([O-])c1ccc(-c2cnc(CN(Cc3ccc(CNCc4ccccn4)cc3)C3CCCc4cccnc43)[nH]2)cc1` (stereo not drawn) [Example 27, N-(2-pyridinylmethyl)-N′-[4-(4-nitrophenyl)-1H-imidazol-2-ylmethyl]-N′-(5,6,7,8-tetrahydro-8-quinolinyl)-1,4-benzenedimethanamine] came in with an inhibition at 20 µg/mL in test [1] greater than 20%. Besides, the EC50 in test [2] and in test [3] was less than 20 µg/mL each time.
In test [1], `Cc1nc(CN(Cc2ccc(CNCc3ccccn3)cc2)C2CCCc3cccnc32)[nH]c1-c1ccccc1` (stereo not drawn) [Example 28, N-(2-Pyridinylmethyl)-N′-(4-methyl-5-phenyl-1H-imidazol-2-ylmethyl)-N′-(5,6,7,8-tetrahydro-8-quinolinyl)-1,4-benzenedimethanamine] registered an inhibition at 20 µg/mL greater than 20%. Also, the EC50 in test [2] and in test [3] was less than 20 µg/mL in each case.
As for `CC(NCc1ccc(CN(Cc2nc3ccccc3[nH]2)C2CCCc3cccnc32)cc1)c1ccccn1` (stereo not drawn) [Example 66, N-[1-(2-pyridinyl)eth-1-yl]-N′-(1H-benzimidazol-2-ylmethyl)-N′-(5,6,7,8-tetrahydro-8-quinolinyl)-1,4-benzenedimethanamine], the inhibition at 20 µg/mL in test [1] is greater than 20%. For the same compound, the EC50 in test [2] and in test [3] was less than 20 µg/mL in each case.
As for `CC(C)(C)c1cnc(CN(Cc2ccc(CNCc3ccccn3)cc2)C2CCCc3cccnc32)[nH]1` (stereo not drawn) [Example 29, N-(2-Pyridinylmethyl)-N′-(5-tert-butyl-1H-imidazol-2-ylmethyl)-N′-(5,6,7,8-tetrahydro-8-quinolinyl)-1,4-benzenedimethanamine], the inhibition at 20 µg/mL in test [1] is greater than 20%. The EC50 in test [2] and in test [3] was less than 20 µg/mL in each case.
Turning to `Cc1cc(CNCc2ccc(CN(Cc3nc4ccccc4[nH]3)C3CCCc4cccnc43)cc2)cc(C)n1` (stereo not drawn) [Example 62, N-(2,6-dimethyl-4-pyridinylmethyl)-N′-(1H-benzimidazol-2-ylmethyl)-N′-(5,6,7,8-tetrahydro-8-quinolinyl)-1,4-benzenedimethanamine], the inhibition at 20 µg/mL in test [1] is greater than 20%. For the same compound, the EC50 in test [2] and in test [3] was less than 20 µg/mL throughout.
In test [1], `c1ccc(CNCc2ccc(CN[C@H]3CCCC[C@@H]3NCc3ccccn3)cc2)nc1` (relative stereo) [Example 133, N-(2-pyridinylmethyl)-N′-[trans-2-[(pyridin-2-ylmethyl)amino]cyclohexyl]-1,4-benzenedimethanamine] displayed an inhibition at 20 µg/mL greater than 20%. Also, the EC50 in test [2] and in test [3] was less than 20 µg/mL in each case.
`CCCCc1ccc(CNCc2ccc(CN(Cc3nc4ccccc4[nH]3)C3CCCc4cccnc43)cc2)nc1` (stereo not drawn) [Example 54, N-(5-butyl-2-pyridinylmethyl)-N′-(1H-benzimidazol-2-ylmethyl)-N′-(5,6,7,8-tetrahydro-8-quinolinyl)-1,4-benzenedimethanamine]: the inhibition at 20 µg/mL in test [1] was greater than 20%. In addition, the EC50 in test [2] and in test [3] was less than 20 µg/mL in each case.
In the case of `c1ccc(-c2cccc3nc(CN(Cc4ccc(CNCc5ccccn5)cc4)C4CCCc5cccnc54)[nH]c23)cc1` (stereo not drawn) [Example 14, N-(2-pyridinylmethyl)-N′-[4-phenyl-1H-benzimidazol-2-ylmethyl]-N′-(5,6,7,8-tetrahydro-8-quinolinyl)-1,4-benzenedimethanamine], the inhibition at 20 µg/mL in test [1] is greater than 20%. Besides, the EC50 in test [2] and in test [3] was less than 20 µg/mL throughout.
In test [1], `FC(F)(F)c1c[nH]c(CN(Cc2ccc(CNCc3ccccn3)cc2)C2CCCc3cccnc32)n1` (stereo not drawn) [Example 35, N-(2-pyridinylmethyl)-N′-(4-trifluormethyl-1H-imidazol-2-ylmethyl)-N′-(5,6,7,8-tetrahydro-8-quinolinyl)-1,4-benzenedimethanamine] displayed an inhibition at 20 µg/mL greater than 20%. The EC50 in test [2] and in test [3] was less than 20 µg/mL in each case.
With `c1ccc(CNCc2ccc(CN(CCNCc3nc4ccccc4[nH]3)C3CCCc4cccnc43)cc2)nc1` (stereo not drawn) [Example 67, N-(2-pyridinylmethyl)-N′-[2-[(1H-benzimidazol-2-ylmethyl)amino]ethyl]-N′-(5,6,7,8-tetrahydro-8-quinolinyl)-1,4-benzenedimethanamine], the inhibition at 20 µg/mL in test [1] is greater than 20%. The EC50 in test [2] and in test [3] was less than 20 µg/mL in each case.
As for `Oc1ccccc1CNCc1ccc(CN(Cc2nc3ccccc3[nH]2)C2CCCc3cccnc32)cc1` (stereo not drawn) [Example 68, N-(2-hydroxyphenylmethyl)-N′-(1H-benzimidazol-2-ylmethyl)-N′-(5,6,7,8-tetrahydro-8-quinolinyl)-1,4-benzenedimethanamine], in test [1], the inhibition at 20 µg/mL is greater than 20%. For the same compound, the EC50 in test [2] and in test [3] was less than 20 µg/mL in each case.
